US9468212B2, “Antifungal compositions” (DSM IP ASSETS B.V., priority 2013, dated 2016)
Values joined by “and” are separate entries in the source; they are usually repeats but may differ in a detail not shown here. Equal entries are not always repeated.

Experiments:
[1] = system: Penicillium italicum; test: Treatment of oranges: wounded, inoculated with Penicillium italicum, wound treated with antifungal composition (Examples 7-9); type: in vivo; settings: for Observed antifungal activity O (%) / Number of moulded oranges/total number of 8 oranges: oranges, 20° C.
Method: The expected antifungal activity (E in %) of the combined antifungal composition comprising both active ingredients was calculated according to the Colby equation (Colby, 1967): E=X+Y−[(X·Y)/100] wherein X and Y are the observed antifungal activities (in %) of the individual active ingredients X and Y, respectively.
Eight fresh, organic oranges were used per treatment. Each orange was soaked in a 180 ppm hypochlorite solution for 10 minutes, then rinsed thoroughly with fresh tap water and dried. The peel of each disinfected orange was wounded once using a cork borer according to the method described by de Lapeyre de Bellaire and Dubois (1987). Subsequently, each wound was inoculated with 10 μl of a Penicillium italicum suspension containing 5×10^5 of spores/ml. After incubation for 3 hours at 20° C., each wound and the orange peel area of 1 cm around the wound was treated with in total […] of a freshly prepared aqueous antifungal composition comprising either 500 ppm natamycin (DSM Food Specialties, Delft, The Netherlands), 300 ppm fludioxonil or both. Each antifungal composition also comprised 3.2% (w/w) beeswax, 0.8% (w/w) glycerol, 0.7% (w/w) polyoxyethylene sorbitan monostearate (Tween 60), 0.1% (w/w) polyoxyethylene sorbitan monooleate (Tween 80), 0.05% (w/w) methylhydroxyethyl-cellulose (MHEC), 0.03% (w/w) anti-foaming agent, 0.02% (w/w) xanthan gum, 0.02% (w/w) citric acid, 0.01% (w/w) lactic acid and 0.01% potassium sorbate. A composition without natamycin or fludioxonil was used as control.
The treated oranges were incubated in a closed box in the dark at 20° C. and assessed on mould growth during a 27-day incubation period.
(§1) The experiment was conducted as described in Example 7, except for the fact that each wounded and inoculated orange was treated with 150 μl of a freshly prepared aqueous antifungal composition comprising either 250 ppm natamycin (DSM Food Specialties, Delft, The Netherlands), 100 ppm fludioxonil or both. During incubation, the treated oranges were assessed on mould growth according to the two methods described in Example 5.
as §1, with “500” for “250”, “400” for “100”, “fenpiclonil” for “fludioxonil”, “a 23-day incubation period,” for “incubation,”

[2] = system: mould; test: Treatment of pineapples: mould incidence on the pineapple rinds after storage (Example 11); type: in vivo; settings: 200 ppm natamycin, 250 ppm fludioxonil or both, 28 days of storage (21 days at 7.5° C., 7 days at 18 to 20° C.)
Text: In this experiment pineapples were selected from a packing plant located in Costa Rica. These pineapples were selected based on uniformity in color and size. Furthermore, they were free from visual mold growth or any other visual damage caused by plagues or diseases.
The surface of the pineapples was first disinfected by immersion of the fruits for one minute in a solution comprising 150 ppm sodium hypochlorite. Next, the fruits were dried and thereafter the antimicrobial compositions were applied on the fruits using a modified watering can. This shower, to simulate the wax cascade used in pineapple packing plants, covered the rind of the fruits with a thin film of wax. The crown of the pineapple was not treated. […]
After 28 days, the mould incidence on the pineapple rinds was assessed using the following method. The number of pineapples with visual mould incidence on the rind per total of 40 pineapples was counted for all compositions. Subsequently, the antifungal activity (in %) of the individual and combined active ingredients (compositions B, C and D) was determined by calculating the reduction in mould incidence observed on the pineapple rind compared to composition A. The observed antifungal activity of composition D was compared to the expected antifungal activity of composition D according to the Colby method (Colby, 1967) as described in Example 5.

[3] = 250 ppm natamycin, 100 ppm fludioxonil or both, 26-27 days
[4] = 250 ppm natamycin, 100 ppm fludioxonil or both, 19 days
[5] = 250 ppm natamycin, 100 ppm fludioxonil or both, 20 days
[6] = 250 ppm natamycin, 100 ppm fludioxonil or both, 21 days
[7] = 250 ppm natamycin, 100 ppm fludioxonil or both, 22 days
[8] = 250 ppm natamycin, 100 ppm fludioxonil or both, 23 days
[9] = 250 ppm natamycin, 100 ppm fludioxonil or both, 25 days
[10] = 250 ppm natamycin, 100 ppm fludioxonil or both, Day 14-18
[11] = 250 ppm natamycin, 100 ppm fludioxonil or both, Day 19-22
[12] = 250 ppm natamycin, 100 ppm fludioxonil or both, Day 23-27
[13] = 500 ppm natamycin, 300 ppm fludioxonil or both, 22-27 days
[14] = 500 ppm natamycin, 300 ppm fludioxonil or both, 18 days
[15] = 500 ppm natamycin, 300 ppm fludioxonil or both, 19 days
[16] = 500 ppm natamycin, 300 ppm fludioxonil or both, 20 days
[17] = 500 ppm natamycin, 300 ppm fludioxonil or both, 21 days
[18] = 500 ppm natamycin, 300 ppm fludioxonil or both, Day 18-27

N#Cc1c[nH]cc1-c1cccc2c1OC(F)(F)O2 [Fludioxonil, fludioxonil]
moulded oranges of the 8 oranges ([1]; 250 ppm natamycin, 100 ppm fludioxonil or both, after 14 through 27 days of incubation): 8
Observed antifungal activity O (%) [1, 3]: 0%
Observed antifungal activity O (%) [1, 4]: 9%
Observed antifungal activity O (%) [1, 5]: 2%
Observed antifungal activity O (%) [1, 6]: 0%
Observed antifungal activity O (%) [1, 7]: 0%
Observed antifungal activity O (%) [1, 8]: 0%
Observed antifungal activity O (%) [1, 9]: 0%
Number of moulded oranges/total number of 8 oranges [1, 10]: 8/8
Number of moulded oranges/total number of 8 oranges [1, 11]: 8/8
Number of moulded oranges/total number of 8 oranges [1, 12]: 8/8
Observed antifungal activity O (%) [1, 13]: 17%
Observed antifungal activity O (%) [1, 14]: 17%
Observed antifungal activity O (%) [1, 15]: 17%
Observed antifungal activity O (%) [1, 16]: 17%
Observed antifungal activity O (%) [1, 17]: 17%
Number of moulded oranges/total number of 8 oranges [1, 18]: 7 and 7/8
Observed antifungal activity O (%) [2]: 90%

C[C@@H]1C/C=C/C=C/C=C/C=C/[C@H](O[C@@H]2O[C@H](C)[C@@H](O)[C@H](N)[C@@H]2O)C[C@@H]2O[C@](O)(C[C@@H](O)C[C@H]3O[C@@H]3/C=C/C(=O)O1)C[C@H](O)[C@H]2C(=O)O [Natamycin, natamycin]
Observed antifungal activity O (%) [1, 3]: 17%
Observed antifungal activity O (%) [1, 4]: 36%
Observed antifungal activity O (%) [1, 5]: 34%
Observed antifungal activity O (%) [1, 6]: 32%
Observed antifungal activity O (%) [1, 7]: 29%
Observed antifungal activity O (%) [1, 8]: 25%
Observed antifungal activity O (%) [1, 9]: 19%
Number of moulded oranges/total number of 8 oranges [1, 10]: 6/8
Number of moulded oranges/total number of 8 oranges [1, 11]: 7/8
Number of moulded oranges/total number of 8 oranges [1, 12]: 7/8
Observed antifungal activity O (%) [1, 13]: 14%
Observed antifungal activity O (%) [1, 14]: 32%
Observed antifungal activity O (%) [1, 15]: 29%
Observed antifungal activity O (%) [1, 16]: 20%
Observed antifungal activity O (%) [1, 17]: 16%
Number of moulded oranges/total number of 8 oranges [1, 18]: 6 and 6/8
Observed antifungal activity O (%) ([1]; 500 ppm natamycin, 400 ppm fenpiclonil or both, 22-23 days): 14%
Observed antifungal activity O (%) ([1]; 500 ppm natamycin, 400 ppm fenpiclonil or both, 12 days): 55%
Observed antifungal activity O (%) ([1]; 500 ppm natamycin, 400 ppm fenpiclonil or both, 13 days): 52%
Observed antifungal activity O (%) ([1]; 500 ppm natamycin, 400 ppm fenpiclonil or both, 14 days): 48%
Observed antifungal activity O (%) ([1]; 500 ppm natamycin, 400 ppm fenpiclonil or both, 15 days): 45%
Observed antifungal activity O (%) ([1]; 500 ppm natamycin, 400 ppm fenpiclonil or both, 16 days): 43%
Observed antifungal activity O (%) ([1]; 500 ppm natamycin, 400 ppm fenpiclonil or both, 18 days): 32%
Observed antifungal activity O (%) ([1]; 500 ppm natamycin, 400 ppm fenpiclonil or both, 19 days): 29%
Observed antifungal activity O (%) ([1]; 500 ppm natamycin, 400 ppm fenpiclonil or both, 20 days): 20%
Observed antifungal activity O (%) ([1]; 500 ppm natamycin, 400 ppm fenpiclonil or both, 21 days): 16%
Number of moulded oranges/total number of 8 oranges ([1]; 500 ppm natamycin, 400 ppm fenpiclonil or both, Day 14-15): 5 and 5/8
Number of moulded oranges/total number of 8 oranges ([1]; 500 ppm natamycin, 400 ppm fenpiclonil or both, Day 16): 5/8
Number of moulded oranges/total number of 8 oranges ([1]; 500 ppm natamycin, 400 ppm fenpiclonil or both, Day 18): 6/8
Number of moulded oranges/total number of 8 oranges ([1]; 500 ppm natamycin, 400 ppm fenpiclonil or both, Day 19-23): 6/8
Observed antifungal activity O (%) [2]: 35%
